In the assay the target is human APJ receptor (Homo sapiens (Human), UniProt P35414). Description: biochemical. Conditions: [35S]GTPγS binding, CHO membranes expressing human APJ receptor; read-out: Activity hAPJ SPA EC50 IP. The format is biochemical. The method, then:
The human APJ receptor was cloned by polymerase chain reaction and the gene encoding the receptor was subcloned in pFLAG-CMV™-3 expression vector (Sigma, Saint Louis, Mo. USA) in-house at Amgen. A GTPγS binding assay was performed on membranes prepared from CHO cells stably expressing human APJ receptor. The optimum experimental conditions for the concentrations of GDP, MgCl2, and NaCl in the assay buffer were initially determined. […] Incubation was at RT for 90 min and the microplate was read using a ViewLux™ ultra HTS Microplate Imager (PerkinElmer, Inc.).
In general terms: Binding of GTPγS marks nucleotide exchange on a G protein.

Sequence of human APJ receptor (P35414 whole entry): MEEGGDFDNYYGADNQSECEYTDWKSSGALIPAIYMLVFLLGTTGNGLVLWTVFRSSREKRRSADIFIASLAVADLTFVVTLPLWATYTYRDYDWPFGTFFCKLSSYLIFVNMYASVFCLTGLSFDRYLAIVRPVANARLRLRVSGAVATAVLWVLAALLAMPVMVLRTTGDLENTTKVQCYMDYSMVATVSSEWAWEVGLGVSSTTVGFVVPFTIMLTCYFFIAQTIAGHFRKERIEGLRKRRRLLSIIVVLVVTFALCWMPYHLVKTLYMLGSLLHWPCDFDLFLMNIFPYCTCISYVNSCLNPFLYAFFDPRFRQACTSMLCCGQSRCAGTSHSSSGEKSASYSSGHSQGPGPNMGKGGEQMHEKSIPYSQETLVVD

Regarding `COc1cccc(OC)c1-n1c(NS(=O)(=O)CCc2ccc(F)cc2C#N)nnc1-c1nc(C(C)C)cs1` [Example 151.0, 2-(2-cyano-4-fluorophenyl)-N-(4-(2,6-dimethoxyphenyl)-5-(4-isopropylthiazol-2-yl)-4H-1,2,4-triazol-3-yl)ethanesulfonamide], the concentration for a half-maximal effect (EC50) (commonly the midpoint of the concentration-response curve) was found to be 31 nM.

“(2S)-N-(4-(2,6-dimethoxyphenyl)-5-(2-pyrazinyl)-4H-1,2,4-triazol-3-yl)-1-(5-fluoro-2-pyrimidinyl)-2-propanesulfonamide and (2R)-N-(4-(2,6-dimethoxyphenyl)-5-(2-pyrazinyl)-4H-1,2,4-triazol-3-yl)-1-(5-fluoro-2-pyrimidinyl)-2-propanesulfonamide [Example 182.0]”: the concentration for a half-maximal effect (EC50) stood at 84 nM.

In the case of `COc1cccc(OC)c1-n1c(NS(=O)(=O)C[C@H](OC)c2ccc(Cl)cn2)nnc1-c1ccn(C)n1` (single isomer, unassigned) [Example 376.0, (R)-2-(5-Chloropyridin-2-yl)-N-(4-(2,6-dimethoxyphenyl)-5-(1-methyl-1H-pyrazol-3-yl)-4H-1,2,4-triazol-3-yl)-2-methoxyethanesulfonamide or (S)-2-(5-chloropyridin-2-yl)-N-(4-(2,6-dimethoxyphenyl)-5-(1-methyl-1H-pyrazol-3-yl)-4H-1,2,4-triazol-3-yl)-2-methoxyethanesulfonamide], the EC50 came out at 1.7 nM.

As to `COc1ccc([C@@H](C)[C@H](C)S(=O)(=O)Nc2nnc(-c3ccn(C)n3)n2-c2c(OC)cccc2OC)nc1` [Example 459.0, (2S,3R)-N-(4-(2,6-dimethoxyphenyl)-5-(1-methyl-1H-pyrazol-3-yl)-4H-1,2,4-triazol-3-yl)-3-(5-methoxy-2-pyridinyl)-2-butanesulfonamide], the EC50 worked out at 0.33 nM.

With `COc1ncnc(OC)c1-n1c(NS(=O)(=O)[C@@H](C)[C@@H](OC(C)C)c2ncc(Cl)cn2)nnc1-c1ccn(C)n1` [Example 456.0, (1S,2S)-1-(5-chloro-2-pyrimidinyl)-N-(4-(4,6-dimethoxy-5-pyrimidinyl)-5-(1-methyl-1H-pyrazol-3-yl)-4H-1,2,4-triazol-3-yl)-1-(1-methylethoxy)-2-propanesulfonamide], the concentration giving a half-maximal response (EC50) came to 0.6 nM.

Turning to `CC(C)O[C@@H](c1ncc(Cl)cn1)[C@H](C)S(=O)(=O)Nc1nnc(-c2ccn(C)n2)n1C1CC1` [Example 532.0, (1S,2S)-1-(5-chloro-2-pyrimidinyl)-N-(4-cyclopropyl-5-(1-methyl-1H-pyrazol-3-yl)-4H-1,2,4-triazol-3-yl)-1-(2-propanyloxy)-2-propanesulfonamide], the EC50 worked out at 22 nM.

With `COc1cccc(OC)c1-n1c(NS(=O)(=O)C[C@H](OC)c2ccc(Cl)cn2)nnc1-c1ccn(C)n1` (single isomer, unassigned) [Example 377.0, (R)-2-(5-Chloropyridin-2-yl)-N-(4-(2,6-dimethoxyphenyl)-5-(1-methyl-1H-pyrazol-3-yl)-4H-1,2,4-triazol-3-yl)-2-methoxyethanesulfonamide or (S)-2-(5-chloropyridin-2-yl)-N-(4-(2,6-dimethoxyphenyl)-5-(1-methyl-1H-pyrazol-3-yl)-4H-1,2,4-triazol-3-yl)-2-methoxyethanesulfonamide], the concentration for a half-maximal effect (EC50) was determined as 0.6 nM.

On to `COc1cccc(OC)c1-n1c(NS(=O)(=O)[C@@H](C)[C@H](OC)c2ncc(Cl)cn2)nnc1-c1cnn2ccccc12` [Example 423.0, (1R,2S)-1-(5-chloropyrimidin-2-yl)-N-(4-(2,6-dimethoxyphenyl)-5-(pyrazolo [1,5-a]pyridin-3-yl)-4H-1,2,4-triazol-3-yl)-1-methoxypropane-2-sulfonamide], for which the concentration for a half-maximal effect (EC50) stood at 0.68 nM.

Regarding `COc1ncnc(OC)c1-n1c(NS(=O)(=O)[C@@H](C)[C@@H](OC(C)C)c2cnc(C)cn2)nnc1-c1ccn(C)n1` [Example 461.0, (1S,2S)-N-(4-(4,6-dimethoxy-5-pyrimidinyl)-5-(1-methyl-1H-pyrazol-3-yl)-4H-1,2,4-triazol-3-yl)-1-(5-methyl-2-pyrazinyl)-1-(2-propanyloxy)-2-propanesulfonamide], the EC50 amounted to 9 nM.

Take `COc1cccc(OC)c1-n1c(NS(=O)(=O)[C@H](C)[C@H](O)c2ncc(C)cn2)nnc1-c1nc(C)cs1` (single isomer, unassigned) [Example 317.0, (1R,2R)-N-(4-(2,6-dimethoxyphenyl)-5-(4-methylthiazol-2-yl)-4H-1,2,4-triazol-3-yl)-1-hydroxy-1-(5-methylpyrimidin-2-yl)propane-2-sulfonamide or (1S,2S)-N-(4-(2,6-dimethoxyphenyl)-5-(4-methylthiazol-2-yl)-4H-1,2,4-triazol-3-yl)-1-hydroxy-1-(5-methylpyrimidin-2-yl)propane-2-sulfonamide]: the EC50 is 6.6 nM.

On to `COc1cccc(OC)c1-n1c(NS(=O)(=O)[C@H]2CCCNC2)nnc1-c1ccn(C)n1` (mixture of isomers) [Example 263.0, (3R)-N-(4-(2,6-dimethoxyphenyl)-5-(1-methyl-1H-pyrazol-3-yl)-4H-1,2,4-triazol-3-yl)-3-piperidinesulfonamide and (3S)-N-(4-(2,6-dimethoxyphenyl)-5-(1-methyl-1H-pyrazol-3-yl)-4H-1,2,4-triazol-3-yl)-3-piperidinesulfonamide], for which the concentration for a half-maximal effect (EC50) is 180 nM.

Regarding `CCO[C@H](c1ncc(C)cn1)[C@H](C)S(=O)(=O)Nc1nnc(-c2ccn(C(F)F)n2)n1-c1c(OC)cccc1OC` [Example 199.0, (1R,2S)-N-(5-(1-(difluoromethyl)-1H-pyrazol-3-yl)-4-(2,6-dimethoxyphenyl)-4H-1,2,4-triazol-3-yl)-1-ethoxy-1-(5-methyl-2-pyrimidinyl)-2-propanesulfonamide], the EC50 is 0.26 nM.

For `Cc1cnc([C@@H](C)[C@H](C)S(=O)(=O)Nc2nnc(-c3ccn(C)n3)n2-c2c(F)cccc2F)cn1` [Example 231.0, (2S,3R)-N-(4-(2,6-difluorophenyl)-5-(1-methyl-1H-pyrazol-3-yl)-4H-1,2,4-triazol-3-yl)-3-(5-methyl-2-pyrazinyl)-2-butanesulfonamide], the EC50 is 46 nM.

For `COc1cccc(OC)c1-n1c(NS(=O)(=O)[C@@H](C)[C@H](C)c2ncc(C)cn2)nnc1-c1ccn(C)n1` [Example 201.0, (2S,3R)-N-(4-(2,6-dimethoxyphenyl)-5-(1-methyl-1H-pyrazol-3-yl)-4H-1,2,4-triazol-3-yl)-3-(5-methyl-2-pyrimidinyl)-2-butanesulfonamide], the EC50 is 0.93 nM.

`COc1cnc([C@@H](C)[C@H](C)S(=O)(=O)Nc2nnc(-c3cnn4c3CCC4)n2-c2c(OC)cccc2OC)nc1` [Example 485.0, (2S,3R)-N-(5-(5,6-dihydro-4H-pyrrolo[1,2-b]pyrazol-3-yl)-4-(2,6-dimethoxyphenyl)-4H-1,2,4-triazol-3-yl)-3-(5-methoxypyrimidin-2-yl)butane-2-sulfonamide]: the EC50 was found to be 0.3 nM.

On to `COc1cccc(OC)c1-n1c(NS(=O)(=O)[C@@H](C)[C@H](OC)c2ncc(C)cn2)nnc1-c1cnn2ccc(C)cc12` [Example 416.0, (1R,2S)-N-(4-(2,6-dimethoxyphenyl)-5-(5-methylpyrazolo[1,5-a]pyridin-3-yl)-4H-1,2,4-triazol-3-yl)-1-methoxy-1-(5-methylpyrimidin-2-yl)propane-2-sulfonamide], for which the EC50 was 8.4 nM.

`COc1cccc(OC)c1-n1c(NS(=O)(=O)[C@@H](C)[C@H](C)c2ncc(Cl)cn2)nnc1-c1n[nH]c2ccccc12` [Example 429.0]: the half-maximal effective concentration (EC50) is 7.6 nM.

For `COc1ccc(N2CCC2=O)cc1-n1c(NS(=O)(=O)CCc2ccc(F)cc2C#N)nnc1-c1cccs1` [Example 132.0, 2-(2-Cyano-4-fluorophenyl)-N-(4-(2-methoxy-5-(2-oxoazetidin-1-yl)phenyl)-5-(thiophen-2-yl)-4H-1,2,4-triazol-3-yl)ethanesulfonamide], the EC50 came out at 0.24 nM.

As for `COc1cccc(OC)c1-n1c(NS(=O)(=O)CCc2ccc(Cl)cc2)nnc1-c1ncc(C)s1` [Example 143.0, 2-(4-chlorophenyl)-N-(4-(2,6-dimethoxyphenyl)-5-(5-methylthiazol-2-yl)-4H-1,2,4-triazol-3-yl)ethanesulfonamide], the concentration for a half-maximal effect (EC50) was determined as 236 nM.

For the compound `COc1cccc(OC)c1-n1c(NS(=O)(=O)CCc2ccc(Cl)cc2)nnc1-c1csc(C)n1` [Example 149.0, 2-(4-chlorophenyl)-N-(4-(2,6-dimethoxyphenyl)-5-(2-methylthiazol-4-yl)-4H-1,2,4-triazol-3-yl)ethanesulfonamide], the half-maximal effective concentration (EC50) was determined as 27 nM.

`COc1cncc(-c2nnc(NS(=O)(=O)[C@@H](C)[C@H](C)c3ncc(C)cn3)n2-c2c(OC)cccc2OC)n1` [Example 202.0, (2S,3R)-N-(4-(2,6-dimethoxyphenyl)-5-(6-methoxy-2-pyrazinyl)-4H-1,2,4-triazol-3-yl)-3-(5-methyl-2-pyrimidinyl)-2-butanesulfonamide]: the EC50 was 2.9 nM.

For `COc1cccc(OC)c1-n1c(NS(=O)(=O)[C@H](C)[C@@H](C)c2ncc(Cl)cn2)nnc1-c1ccn(C)n1` [Example 443.0, (2R,3S)-3-(5-chloropyrimidin-2-yl)-N-(4-(2,6-dimethoxyphenyl)-5-(1-methyl-1H-pyrazol-3-yl)-4H-1,2,4-triazol-3-yl)butane-2-sulfonamide], the EC50 came to 6.4 nM.

Consider `COc1cccc(OC)c1-n1c(NS(=O)(=O)[C@@H](C)[C@H](OC)c2cnc(C)cn2)nnc1-c1cc(C)[nH]n1` [Example 348.0, (1R,2S)-N-(4-(2,6-dimethoxyphenyl)-5-(5-methyl-1H-pyrazol-3-yl)-4H-1,2,4-triazol-3-yl)-1-methoxy-1-(5-methyl-2-pyrazinyl)-2-propanesulfonamide], for which the EC50 amounted to 4.3 nM.

As for `COc1cccc(OC)c1-n1c(NS(=O)(=O)[C@@H](C)[C@H](OC)c2ncc(C)cn2)nnc1-c1csc(C)n1` [Example 338.0, (1R,2S)-N-(4-(2,6-dimethoxyphenyl)-5-(2-methyl-1,3-thiazol-4-yl)-4H-1,2,4-triazol-3-yl)-1-methoxy-1-(5-methyl-2-pyrimidinyl)-2-propanesulfonamide], the 50% effective concentration (EC50) amounted to 0.34 nM.

The values above are taken from patent US11046680B1, “Heteroaryl-substituted triazoles as APJ receptor agonists” (priority 2016, dated 2021).
